Measured values from ChEMBL document CHEMBL3813615, “Novel JAK1-selective benzimidazole inhibitors with enhanced membrane permeability” (Bioorg Med Chem Lett, 2016).

Assays:
[1] = molecular target: Tyrosine-protein kinase JAK1 (Mus musculus, UniProt P52332); test: Inhibition of FLAG-tagged mouse JAK1 expressed in insect Sf9 cells using biotin-EQEDEPEGDYFEWLE-NH2 as substrate
[2] = molecular target: Non-receptor tyrosine-protein kinase TYK2 (Homo sapiens, UniProt P29597); test: Inhibition of TYK2 (unknown origin) using tyrosine 3 peptide as substrate by z'-lyte assay
[3] = molecular target: T1, Tyrosine-protein kinase JAK3 (Homo sapiens, UniProt P52333); test: Inhibition of JAK3 (unknown origin) using tyrosine 6 peptide as substrate by z'-lyte assay
T1 sequence (P52333 whole entry): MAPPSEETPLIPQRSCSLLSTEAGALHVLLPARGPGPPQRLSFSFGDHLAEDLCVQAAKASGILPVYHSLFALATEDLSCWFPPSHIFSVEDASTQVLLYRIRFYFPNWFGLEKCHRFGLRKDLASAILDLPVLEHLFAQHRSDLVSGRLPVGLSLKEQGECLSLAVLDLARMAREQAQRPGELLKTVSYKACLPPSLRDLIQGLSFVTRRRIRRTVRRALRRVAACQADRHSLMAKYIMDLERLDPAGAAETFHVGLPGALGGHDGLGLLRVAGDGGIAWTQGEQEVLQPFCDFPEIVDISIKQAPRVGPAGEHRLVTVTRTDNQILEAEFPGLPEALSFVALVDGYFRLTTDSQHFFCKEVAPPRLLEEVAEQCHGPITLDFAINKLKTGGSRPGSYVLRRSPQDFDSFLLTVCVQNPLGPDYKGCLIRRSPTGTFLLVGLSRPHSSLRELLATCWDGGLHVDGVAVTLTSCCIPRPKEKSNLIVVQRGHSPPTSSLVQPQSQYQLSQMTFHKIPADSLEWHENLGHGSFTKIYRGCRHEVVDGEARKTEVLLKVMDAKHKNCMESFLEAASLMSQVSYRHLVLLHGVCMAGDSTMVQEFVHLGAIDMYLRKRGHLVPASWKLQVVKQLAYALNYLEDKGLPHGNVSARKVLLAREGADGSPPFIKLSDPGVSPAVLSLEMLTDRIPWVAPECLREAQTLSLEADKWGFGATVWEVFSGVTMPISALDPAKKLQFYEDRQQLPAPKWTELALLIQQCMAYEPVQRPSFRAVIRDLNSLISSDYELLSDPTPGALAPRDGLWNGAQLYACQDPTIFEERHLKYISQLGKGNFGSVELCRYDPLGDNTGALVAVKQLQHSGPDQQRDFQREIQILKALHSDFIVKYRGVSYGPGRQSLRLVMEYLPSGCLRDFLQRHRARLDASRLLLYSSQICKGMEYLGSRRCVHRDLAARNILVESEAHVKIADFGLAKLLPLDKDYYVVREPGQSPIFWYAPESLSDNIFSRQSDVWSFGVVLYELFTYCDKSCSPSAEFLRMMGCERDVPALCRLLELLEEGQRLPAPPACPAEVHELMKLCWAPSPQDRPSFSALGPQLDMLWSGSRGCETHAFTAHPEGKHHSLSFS

[4] = molecular target: Tyrosine-protein kinase JAK1 (Homo sapiens, UniProt P23458); test: Inhibition of JAK1 (unknown origin) using tyrosine 6 peptide as substrate by z'-lyte assay
[5] = molecular target: Tyrosine-protein kinase JAK2 (Homo sapiens, UniProt O60674); test: Inhibition of JAK2 (unknown origin) using tyrosine 6 peptide as substrate by z'-lyte assay
Chain of Tyrosine-protein kinase JAK2 (O60674 whole entry): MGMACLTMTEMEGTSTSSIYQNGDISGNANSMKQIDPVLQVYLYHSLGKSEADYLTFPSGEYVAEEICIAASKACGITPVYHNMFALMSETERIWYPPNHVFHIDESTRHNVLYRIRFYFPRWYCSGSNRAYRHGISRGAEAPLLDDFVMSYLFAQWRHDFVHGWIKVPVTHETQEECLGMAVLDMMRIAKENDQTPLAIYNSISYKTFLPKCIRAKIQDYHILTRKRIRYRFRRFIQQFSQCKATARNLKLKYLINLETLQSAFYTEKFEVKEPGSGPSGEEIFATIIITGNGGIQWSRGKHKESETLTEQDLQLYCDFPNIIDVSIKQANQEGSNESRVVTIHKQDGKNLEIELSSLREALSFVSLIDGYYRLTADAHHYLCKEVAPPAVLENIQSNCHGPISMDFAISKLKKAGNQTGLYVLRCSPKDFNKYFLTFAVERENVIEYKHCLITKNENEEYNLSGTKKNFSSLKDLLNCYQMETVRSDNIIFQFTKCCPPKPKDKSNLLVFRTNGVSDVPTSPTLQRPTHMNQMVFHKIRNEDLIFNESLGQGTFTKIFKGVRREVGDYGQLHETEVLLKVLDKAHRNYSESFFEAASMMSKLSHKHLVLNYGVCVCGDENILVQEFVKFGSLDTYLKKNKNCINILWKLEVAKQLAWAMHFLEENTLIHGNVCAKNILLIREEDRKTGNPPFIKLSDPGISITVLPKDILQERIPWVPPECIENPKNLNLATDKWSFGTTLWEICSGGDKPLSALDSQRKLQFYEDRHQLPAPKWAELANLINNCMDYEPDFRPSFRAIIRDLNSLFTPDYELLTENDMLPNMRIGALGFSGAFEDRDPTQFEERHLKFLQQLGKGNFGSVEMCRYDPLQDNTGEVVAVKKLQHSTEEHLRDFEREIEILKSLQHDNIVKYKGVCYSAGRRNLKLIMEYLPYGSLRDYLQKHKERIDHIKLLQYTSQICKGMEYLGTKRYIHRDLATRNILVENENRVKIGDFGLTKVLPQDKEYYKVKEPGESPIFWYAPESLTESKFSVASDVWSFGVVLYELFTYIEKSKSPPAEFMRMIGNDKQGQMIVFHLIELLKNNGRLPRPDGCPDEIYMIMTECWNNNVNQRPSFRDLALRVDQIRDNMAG

Chain of Non-receptor tyrosine-protein kinase TYK2 (P29597 whole entry): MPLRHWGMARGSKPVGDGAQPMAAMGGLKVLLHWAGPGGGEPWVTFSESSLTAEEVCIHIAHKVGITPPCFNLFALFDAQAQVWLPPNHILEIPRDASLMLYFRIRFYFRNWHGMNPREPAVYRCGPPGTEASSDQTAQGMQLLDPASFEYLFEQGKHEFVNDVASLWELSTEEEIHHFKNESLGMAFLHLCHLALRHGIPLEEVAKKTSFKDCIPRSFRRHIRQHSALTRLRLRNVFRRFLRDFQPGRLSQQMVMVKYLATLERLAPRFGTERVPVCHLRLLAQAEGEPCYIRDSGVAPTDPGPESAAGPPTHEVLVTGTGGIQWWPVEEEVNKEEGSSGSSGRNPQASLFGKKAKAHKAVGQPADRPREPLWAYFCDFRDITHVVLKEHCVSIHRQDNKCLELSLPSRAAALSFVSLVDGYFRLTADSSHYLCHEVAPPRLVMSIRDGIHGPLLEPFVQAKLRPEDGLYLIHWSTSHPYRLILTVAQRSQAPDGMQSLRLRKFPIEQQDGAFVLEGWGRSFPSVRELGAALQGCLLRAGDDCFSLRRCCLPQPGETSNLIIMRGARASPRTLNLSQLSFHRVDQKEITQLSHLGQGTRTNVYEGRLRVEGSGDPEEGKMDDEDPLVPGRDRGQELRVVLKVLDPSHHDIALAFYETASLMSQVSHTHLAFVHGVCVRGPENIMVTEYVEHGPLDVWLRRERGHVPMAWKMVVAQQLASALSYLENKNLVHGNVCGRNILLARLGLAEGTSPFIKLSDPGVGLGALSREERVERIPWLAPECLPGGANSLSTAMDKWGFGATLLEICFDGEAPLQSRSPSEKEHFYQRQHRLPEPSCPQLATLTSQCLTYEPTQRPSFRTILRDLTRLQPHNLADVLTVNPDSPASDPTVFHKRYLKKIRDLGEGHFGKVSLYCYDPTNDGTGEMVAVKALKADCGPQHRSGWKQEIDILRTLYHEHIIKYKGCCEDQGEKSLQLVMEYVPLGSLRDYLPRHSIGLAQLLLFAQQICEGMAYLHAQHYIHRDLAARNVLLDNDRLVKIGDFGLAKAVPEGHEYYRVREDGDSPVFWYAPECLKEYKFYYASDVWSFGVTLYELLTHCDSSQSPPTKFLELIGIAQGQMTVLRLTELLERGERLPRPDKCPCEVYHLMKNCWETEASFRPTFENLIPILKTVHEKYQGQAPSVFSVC
Chain of Tyrosine-protein kinase JAK1 (Homo sapiens, UniProt P23458) (P23458 whole entry): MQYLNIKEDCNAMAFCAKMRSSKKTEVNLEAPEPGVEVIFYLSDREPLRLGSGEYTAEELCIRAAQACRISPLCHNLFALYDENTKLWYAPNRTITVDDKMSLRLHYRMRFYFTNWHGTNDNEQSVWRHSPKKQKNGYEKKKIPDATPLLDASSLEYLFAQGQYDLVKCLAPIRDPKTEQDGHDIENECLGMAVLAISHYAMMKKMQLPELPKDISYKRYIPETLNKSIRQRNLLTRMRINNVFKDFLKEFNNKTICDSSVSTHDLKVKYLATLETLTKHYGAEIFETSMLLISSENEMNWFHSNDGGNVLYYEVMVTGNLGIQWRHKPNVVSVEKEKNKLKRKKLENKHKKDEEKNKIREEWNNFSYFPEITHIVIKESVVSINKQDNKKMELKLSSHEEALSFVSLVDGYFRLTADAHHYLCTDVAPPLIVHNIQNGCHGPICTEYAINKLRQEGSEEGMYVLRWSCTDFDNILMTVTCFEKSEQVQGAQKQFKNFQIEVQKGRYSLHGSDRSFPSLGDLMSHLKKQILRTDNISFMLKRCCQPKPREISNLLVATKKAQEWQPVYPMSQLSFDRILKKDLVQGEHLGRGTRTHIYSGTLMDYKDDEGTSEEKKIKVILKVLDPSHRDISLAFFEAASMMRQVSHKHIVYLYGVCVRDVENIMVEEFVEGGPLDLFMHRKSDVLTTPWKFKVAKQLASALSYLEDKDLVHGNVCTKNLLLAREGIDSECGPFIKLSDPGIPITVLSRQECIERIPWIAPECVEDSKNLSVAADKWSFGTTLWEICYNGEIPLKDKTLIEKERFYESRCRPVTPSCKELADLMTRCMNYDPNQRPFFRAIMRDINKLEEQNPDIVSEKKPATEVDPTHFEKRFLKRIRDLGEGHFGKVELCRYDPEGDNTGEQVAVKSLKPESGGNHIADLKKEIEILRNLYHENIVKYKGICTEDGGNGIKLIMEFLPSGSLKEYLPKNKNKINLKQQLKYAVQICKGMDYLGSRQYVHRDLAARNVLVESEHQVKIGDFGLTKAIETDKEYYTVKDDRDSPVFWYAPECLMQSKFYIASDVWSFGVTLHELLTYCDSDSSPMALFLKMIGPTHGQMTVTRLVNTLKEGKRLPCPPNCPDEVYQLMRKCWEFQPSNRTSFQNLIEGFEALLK
Chain of Tyrosine-protein kinase JAK1 (Mus musculus, UniProt P52332) (P52332 whole entry): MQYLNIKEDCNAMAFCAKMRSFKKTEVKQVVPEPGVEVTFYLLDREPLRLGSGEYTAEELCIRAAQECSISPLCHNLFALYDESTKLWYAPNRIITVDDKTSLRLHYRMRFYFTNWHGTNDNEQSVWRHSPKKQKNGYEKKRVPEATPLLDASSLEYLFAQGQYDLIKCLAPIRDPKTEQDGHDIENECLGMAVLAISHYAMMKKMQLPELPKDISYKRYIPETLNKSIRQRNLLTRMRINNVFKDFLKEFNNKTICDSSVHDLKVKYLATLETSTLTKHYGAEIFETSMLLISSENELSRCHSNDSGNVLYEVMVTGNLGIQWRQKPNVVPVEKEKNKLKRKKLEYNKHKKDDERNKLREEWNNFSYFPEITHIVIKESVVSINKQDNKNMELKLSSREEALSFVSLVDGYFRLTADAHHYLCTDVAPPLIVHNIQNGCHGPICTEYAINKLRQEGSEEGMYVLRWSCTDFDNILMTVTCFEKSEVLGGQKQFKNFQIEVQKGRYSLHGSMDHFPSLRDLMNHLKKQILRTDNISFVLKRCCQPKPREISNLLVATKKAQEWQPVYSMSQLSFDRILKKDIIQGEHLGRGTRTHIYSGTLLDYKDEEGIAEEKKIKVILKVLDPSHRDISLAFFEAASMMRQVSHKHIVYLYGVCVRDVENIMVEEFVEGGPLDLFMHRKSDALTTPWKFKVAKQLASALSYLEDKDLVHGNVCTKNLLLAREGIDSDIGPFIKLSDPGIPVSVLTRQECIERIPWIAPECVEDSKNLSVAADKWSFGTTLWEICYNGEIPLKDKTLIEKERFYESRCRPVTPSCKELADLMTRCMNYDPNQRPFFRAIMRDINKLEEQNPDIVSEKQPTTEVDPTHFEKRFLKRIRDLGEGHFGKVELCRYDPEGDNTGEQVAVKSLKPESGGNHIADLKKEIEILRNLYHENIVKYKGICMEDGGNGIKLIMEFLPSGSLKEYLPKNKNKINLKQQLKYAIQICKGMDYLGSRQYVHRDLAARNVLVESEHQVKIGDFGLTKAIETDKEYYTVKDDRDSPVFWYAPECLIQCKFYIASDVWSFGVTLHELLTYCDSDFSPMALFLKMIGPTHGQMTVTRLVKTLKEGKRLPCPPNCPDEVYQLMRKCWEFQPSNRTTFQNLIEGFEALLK

SMILES	IC50 [1]	IC50 [2]	IC50 [3]	IC50 [4]	IC50 [5]
NCCn1c(C2CCNCC2)nc2cc(C(N)=O)ccc21	0.05 µM	–	–	–	–
NCCCn1c2ccc(C(N)=O)cc2nc1[C@H]1CC[C@H](O)CC1	–	30.7 µM	12.4 µM	5.3 µM	–
NCCCn1c(C2CCNCC2)nc2cc(C(N)=O)ccc21	–	31 µM	14.3 µM	5.4 µM	–
NC(=O)c1ccc2c(c1)nc([C@H]1CC[C@H](O)CC1)n2CCO	–	4.3 µM	1.8 µM	0.08 µM	3.2 µM
C[C@@H](O)Cn1c2ccc(C(N)=O)cc2nc1[C@H]1CC[C@H](O)CC1	–	25.7 µM	8.5 µM	2 µM	12.1 µM
CNCCn1c(C2CCNCC2)nc2cc(C(N)=O)ccc21	–	4.1 µM	1.5 µM	0.09 µM	3.1 µM
NC(=O)c1ccc2c(c1)nc([C@H]1CC[C@H](O)CC1)n2CCCO	–	42.2 µM	20.6 µM	7 µM	29.7 µM
CNCCn1c2ccc(C(N)=O)cc2nc1[C@H]1CC[C@H](O)CC1	–	5.6 µM	1.9 µM	0.15 µM	3.9 µM
